The results in this text go back to ChEMBL document CHEMBL3045930, “Study on the quantitative structuretoxicity relationships of aconitine compounds basing on PCA-ANN method” (Med Chem Res, 2013).

SMILES strings stand for the structures.

In the series the test system is Mus musculus. Description: Toxicity in po dosed Mus musculus (mouse). It counts as organism-based. Further details: unit not given here. The conditions noted are these: in vivo.

`COC[C@@]12CC[C@H](OC)[C@]34C([C@@H]([C@H](OC)[C@H]13)[C@]1(OC(C)=O)[C@H]3[C@@H](OC(=O)c5ccccc5)[C@](O)(C[C@H]34)[C@@H](OC)[C@@H]1O)N(C)C2`: the logLD50 was -0.33. Then `CCN1C[C@@H]2CC[C@H](OC)[C@]34C1[C@@H](C[C@H]23)[C@@]1(O)C[C@@H](OC)[C@@]2(O)C[C@@H]4[C@@H]1[C@H]2OC(=O)c1ccccc1`, with 1.45. Take `CCN1C[C@]2(C)CC[C@H](OC)[C@@]34C1[C@@]1(OCO[C@@]15C[C@H](OC)[C@H]1C[C@]3(O)[C@@H]5[C@H]1OC)[C@@H](OC(C)=O)[C@H]24`: the logLD50 worked out at 2.12. Then `Br.CCN1C[C@]2(COC)[C@H](O)C[C@H](OC)[C@]34C1[C@@H]([C@H](OC)[C@H]23)[C@]1(OC(C)=O)[C@H]2[C@@H](OC(=O)c3ccccc3)[C@](O)(C[C@H]24)[C@@H](OC)[C@@H]1O`, with -0.87; and `CCN1C[C@]2(COC)CC[C@H](OC)[C@]34C1[C@@H](C[C@H]23)[C@@]1(O)C[C@H](OC)[C@H]2C[C@@H]4[C@@H]1[C@H]2O`, with -0.94; and `CCN1C[C@]2(COC(=O)c3ccccc3N3C(=O)C[C@H](C)C3=O)CC[C@H](OC)[C@]34C1[C@@](O)([C@@H](OC)[C@H]23)[C@@]1(O)C[C@H](OC)[C@H]2C[C@@H]4[C@@H]1[C@H]2OC`, with 0.48. As for `CCN1C[C@]2(COC)[C@H](O)C[C@H](OC)[C@]34C1[C@@H]([C@H](OC)[C@H]23)[C@]1(OC(C)=O)[C@H]2[C@@H](OC(=O)c3ccccc3)[C@](O)(C[C@]24O)[C@@H](OC)[C@@H]1O`, the figure is -0.66; as for `CCN1C[C@@]2(COC)[C@H]3[C@@H](OC)[C@@H]4C1[C@]3([C@@H](OC)C[C@H]2OC(C)=O)[C@@H]1C[C@@]2(O)[C@H](OC(=O)c3ccccc3)[C@@H]1[C@]4(OC(C)=O)[C@@H](O)[C@@H]2OC`, -0.4. Compound `Br.CCN1C[C@]2(COC)[C@H](O)C[C@H](OC)[C@]34C1[C@@H]([C@H](OC)[C@H]23)[C@]1(O)[C@H]2[C@@H](OC(=O)c3ccccc3)[C@](O)(C[C@H]24)[C@@H](OC)[C@@H]1O` showed a logLD50 of 1.41.

The compound `CCN1C[C@@]2(COC)[C@H]3[C@@H](OC)[C@@H]4C1[C@]3([C@@H](OC)C[C@H]2OC(C)=O)[C@@H]1C[C@@]2(OC(C)=O)[C@H](OC(=O)c3ccccc3)[C@@H]1[C@]4(OC(C)=O)[C@@H](OC(C)=O)[C@@H]2OC` returned a logLD50 of 2.1. As for `CCN1C[C@@]2(COC)[C@H]3[C@@H](OC)[C@@H]4C1[C@]3([C@@H](OC)C[C@H]2OC(C)=O)[C@@H]1C[C@@]2(OC(C)=O)[C@H](OC(C)=O)[C@@H]1[C@]4(OC(C)=O)[C@@H](OC(C)=O)[C@@H]2OC`, the figure is 2.83; as for `Br.COC[C@]12CN(C)C3[C@H]4[C@H](OC)[C@H]1[C@@]3([C@@H](OC)C[C@H]2O)[C@@H]1C[C@@]2(O)[C@H](OC(=O)c3ccccc3)[C@@H]1[C@]4(OC(C)=O)[C@@H](O)[C@@H]2OC`, -0.95; as for `COC[C@]12CN(C)C3[C@H]4[C@H](OC)[C@H]1[C@@]3([C@@H](OC)C[C@H]2O)[C@@H]1C[C@@]2(O)[C@H](OC(=O)c3ccccc3)[C@@H]1[C@]4(O)[C@@H](O)[C@@H]2OC`, 1.32. As to `Br.COC[C@]12CN(C)C3[C@H]4[C@H](OC)[C@H]1[C@@]3([C@@H](OC)C[C@H]2O)[C@@H]1C[C@@]2(O)[C@H](OC(=O)c3ccccc3)[C@@H]1[C@]4(O)[C@@H](O)[C@@H]2OC`, the logLD50 is on record as 1.38.

For the compound `CCN1C[C@]2(COC)[C@H](O)C[C@H](OC)[C@]34C1[C@@H]([C@H](OC)[C@H]23)[C@@]1(O)C[C@H](OC)[C@@]2(O)C[C@@H]4[C@@H]1[C@H]2OC(=O)c1ccccc1`, the logLD50 was determined as 2.15. Then `CCN1C[C@@]2(COC)[C@H]3[C@@H](OC)[C@@H]4C1[C@]3([C@@H](OC)C[C@H]2OC(C)=O)[C@@H]1C[C@]2(O)[C@@H](OC)C[C@@]4(OC(C)=O)[C@H]1[C@H]2OC(=O)c1ccccc1`, with 3.16; and `CCN1C[C@@]2(COC)[C@H]3[C@@H](OC)[C@@H]4C1[C@]3([C@@H](OC)C[C@H]2OC(C)=O)[C@@H]1C[C@]2(OC(C)=O)[C@@H](OC)C[C@@]4(OC(C)=O)[C@H]1[C@H]2OC(=O)c1ccccc1`, with 1.34; and `CCN1C[C@@]2(COC)[C@H]3[C@@H](OC)[C@@H]4C1[C@]3([C@@H](OC)C[C@H]2OC(C)=O)[C@@H]1C[C@]2(OC(C)=O)[C@@H](OC)C[C@@]4(OC(C)=O)[C@H]1[C@H]2OC(C)=O`, with 2.18.

As to `Br.COC[C@@]12CC[C@H](OC)[C@]34C([C@@H]([C@H](OC)[C@H]13)[C@]1(OC(C)=O)[C@H]3[C@@H](OC(=O)c5ccccc5)[C@](O)(C[C@H]34)[C@@H](OC)[C@@H]1O)N(C)C2`, the logLD50 was -0.27. Then `COC[C@@]12CC[C@H](OC)[C@]34C([C@@H]([C@H](OC)[C@H]13)[C@]1(O)[C@H]3[C@@H](OC(=O)c5ccccc5)[C@](O)(C[C@H]34)[C@@H](OC)[C@@H]1O)N(C)C2`, with 1.36. As for `Br.COC[C@@]12CC[C@H](OC)[C@]34C([C@@H]([C@H](OC)[C@H]13)[C@]1(O)[C@H]3[C@@H](OC(=O)c5ccccc5)[C@](O)(C[C@H]34)[C@@H](OC)[C@@H]1O)N(C)C2`, the figure is 1.41. Compound `CCN1C[C@]2(COC)CC[C@H](O)[C@]34C1[C@@](O)([C@@H](OC)[C@H]23)[C@@]1(O)C[C@H](OC)[C@H]2C[C@@H]4[C@@H]1[C@H]2OC.Cl` displayed a logLD50 of 2.07. Take `CCN1C[C@]2(O)CC[C@H](OC)[C@]34C1[C@@H](C[C@H]23)[C@@]1(O)C[C@H](OC)[C@H]2C[C@@H]4[C@]1(O)[C@H]2OC`: the logLD50 worked out at 2.15. Then `CCN1C[C@]2(OC(=O)c3ccccc3NC(C)=O)CC[C@H](OC)[C@]34C1[C@@H](C[C@H]23)[C@@]1(O)C[C@H](OC)[C@H]2C[C@@H]4[C@]1(O)[C@H]2OC`, with 0.84; and `Br.CCN1C[C@]2(OC(=O)c3ccccc3NC(C)=O)CC[C@H](OC)[C@]34C1[C@@H](C[C@H]23)[C@@]1(O)C[C@H](OC)[C@H]2C[C@@H]4[C@]1(O)[C@H]2OC`, with 0.92. As for `CCN1C[C@]2(OC(=O)c3ccccc3NC(C)=O)CC[C@H](OC)[C@]34C1[C@@H](C[C@H]23)[C@@]1(OC(C)=O)C[C@H](OC)[C@H]2C[C@@H]4[C@]1(OC(C)=O)[C@H]2OC`, the figure is 1.16.

The compound `CCN1C[C@]2(COC)CC[C@H](O)[C@]34C1[C@@](O)([C@@H](OC)[C@H]23)[C@@]1(O)C[C@H](OC)[C@H]2C[C@@H]4[C@@H]1[C@H]2O` returned a logLD50 of 2.04. Then `CCN1C[C@]2(COC)[C@H](O)C[C@H](OC)[C@]34C1[C@@H]([C@H](OC)[C@H]23)[C@@]1(OC(C)=O)C[C@H](OC)[C@@]2(O)C[C@@H]4[C@@H]1[C@H]2OC(=O)c1ccc(OC)c(OC)c1`, with 2.56; and `CCN1C[C@]2(COC)[C@H](O)C[C@H](OC)[C@]34C1[C@@H]([C@H](OC)[C@H]23)[C@]1(O)[C@H]2[C@@H](OC(=O)c3ccccc3)[C@](O)(C[C@H]24)[C@@H](OC)[C@@H]1O`, with 1. As for `COC[C@]12CN(C)C3[C@H]4[C@H](OC)[C@H]1[C@@]3([C@@H](OC)C[C@H]2O)[C@@H]1C[C@@]2(O)[C@H](OC(=O)c3ccccc3)[C@@H]1[C@]4(OC(C)=O)[C@@H](OC)[C@@H]2O`, the figure is -1; as for `CCN1C[C@]2(COC)[C@H](O)C[C@H](OC)[C@]34C1[C@@H]([C@H](OC)[C@H]23)[C@@]1(OC(C)=O)C[C@H](OC)[C@@]2(O)C[C@@H]4[C@@H]1[C@H]2OC(=O)c1ccccc1`, -0.33; as for `CCN1C[C@]2(COC)[C@H](O)C[C@H](OC)[C@]34C1[C@@H]([C@H](OC)[C@H]23)[C@]1(OC(C)=O)[C@H]2[C@@H](OC(=O)c3ccccc3)[C@](O)(C[C@H]24)[C@@H](OC)[C@@H]1O` (stereo in doubt; 1), -0.92. For `CCN1C[C@]2(COC)[C@H](O)C[C@H](OC)[C@]34C1[C@@H]([C@H](OC)[C@H]23)[C@]1(OC(C)=O)[C@H]2[C@@H](OC(=O)c3ccccc3)[C@](O)(C[C@H]24)[C@@H](OC)[C@@H]1O` (stereo in doubt; 12), the logLD50 is on record as -0.78.

With `CCN1C[C@]2(COC)CC[C@H](O)[C@]34C1[C@@](O)([C@@H](OC)[C@H]23)[C@@]1(O)C[C@H](OC)[C@H]2C[C@@H]4[C@@H]1[C@H]2OC` [DELSOLINE], the logLD50 amounted to 2.24. Then `CCN1C[C@]2(COC(=O)c3ccccc3N3C(=O)C[C@H](C)C3=O)CC[C@H](OC)[C@@]34C1[C@@]1(OCO[C@@]15C[C@H](OC)[C@H]1C[C@@H]3[C@@H]5[C@H]1OC)[C@@H](OC)[C@H]24` [ELATINE], with 0.7.

On to `CCN1C[C@]2(C)CC[C@H](O)[C@]34C1[C@@H](C[C@H]23)[C@@]1(O)C[C@H](OC)[C@H]2C[C@@H]4[C@@H]1[C@H]2O` [KARAKOLINE], for which the logLD50 is 1.71.
